Data set [1] is described as follows: Aqueous solubility of the compound at pH 7.4. The conditions noted are these: aqueous solution. The data set is classed as physicochemical.
Data set [2] is described as follows: Aqueous solubility of the compound at pH 2.5. The data set is classed as physicochemical. The following applies: aqueous solution.
Data set [3] can be described thus: AUC in rat at 10 mg/kg, po. The data set is classed as ADME, organism-based. Also noted: dose 10 mg/kg, route oral. The following applies: plasma.
Data set [4] is described as follows: Tmax in rat at 10 mg/kg, po. The class given is ADME, organism-based. Also noted: dose 10 mg/kg, route oral. The conditions noted are these: in vivo.
Data set [5] is described as follows: Cmax in rat at 10 mg/kg, po. The data set is classed as ADME, organism-based. Also noted: dose 10 mg/kg, route oral. The conditions noted are these: in vivo.
Data set [6] can be described thus: Volume of distribution at steady state in rat at 1 mg/kg, iv. The data set is classed as ADME, organism-based. Also noted: dose 1 mg/kg, route intravenous. The following applies: in vivo, read-out: Vdss.
Data set [7] can be described thus: Oral bioavailability in rat at 10 mg/kg. The data set is classed as ADME, organism-based. The following applies: in vivo.
Data set [8] can be described thus: Ratio of AUC in brain to AUC in plasma of rat at 10 mg/kg, po. The following applies: brain and plasma. Also noted: dose 10 mg/kg, route oral. The class given is ADME, organism-based.
The test system of data set [9] is Rattus norvegicus. Description: AUC in rat at 1 mg/kg, iv. The following applies: in vivo. The data set is classed as ADME, organism-based, Plasma. Also noted: dose 1 mg/kg, route intravenous.

Values after ≈ are worked out from the molar mass of the structure shown.

The results in this text go back to ChEMBL document CHEMBL2086390, “Design, synthesis and structure-activity relationships of novel benzoxazolone derivatives as 18 kDa translocator protein (TSPO) ligands” (Bioorg Med Chem, 2012).

A word on the solubility: it is the dissolved amount per volume that the medium holds. Low readings indicate little dissolved substance, high ones much dissolved substance. With `CN(C(=O)Cn1c(=O)oc2ccc(-c3ccccc3)cc21)c1ccccc1`, the solubility in [1] is under 1 µg/mL.
`CN(C(=O)Cn1c(=O)oc2ccc(-c3ccccc3)cc21)c1cccnc1` came in with a solubility in data set [1] of 45 µg/mL (≈ 125 µM).
For `CN(C(=O)Cn1c(=O)oc2ccc(-c3cccnc3)cc21)c1ccccc1`, the concentration in solution in data set [2] (solubility) came to 440 µg/mL (≈ 1220 µM).
Usually AUC stands for concentration integrated over time. A high value points to more exposure. What is called Tmax is the time at which the peak concentration occurs. In general, Cmax refers to the peak of the concentration-time curve. As a reminder, the bioavailability is the share of a dose that reaches the circulation, judged against a reference dose that is usually intravenous. As usually defined, the Kp is tissue or fluid exposure divided by exposure in the circulation. `CN(C(=O)Cn1c(=O)oc2ccc(-c3cccnc3)cc21)c1ccccc1.Cl`: the AUC turned out to be 8370 ng·h/mL in data set [3] and 6042 ng·h/mL in data set [9]. Besides, in data set [4], the Tmax worked out at 1 h. This molecule also returned a Cmax in [5] of 50.4 ng/mL. Also, in data set [6], the Vd came out at 4.4 L/kg. The molecule also returned a bioavailability in data set [7] of 13.9%. Further, in data set [8], the Kp was determined as 0.63.
